Where a SMILES comes first, the peptide text is derived from it. [ ]: non-standard residue; d: D form. hPhe = N[C@@H](CCc1ccccc1)C(=O)O

From ChEMBL document CHEMBL1138958, “Opioid receptor binding and antinociceptive activity of the analogues of endomorphin-2 and morphiceptin with phenylalanine mimics in the position 3 or 4” (Bioorg Med Chem Lett, 2006) come the findings set out here.

Series [1] concerns the target Delta-type opioid receptor (Rattus norvegicus, UniProt P33533). Briefly: Displacement of [3H]DPDPE from delta opioid receptor in Wistar rat brain.
Series [2] concerns Mus musculus. The series can be described thus: Antinociceptive activity in mouse at 4ul, icv by hot plate test assessed as area under %MPE - time curve after 30 mins. It counts as functional.
Series [3] has as its system Mus musculus. The series can be described thus: Antinociceptive activity in mouse at 4ul, icv by hot plate test assessed as area under %MPE - time curve after 45 mins. The class given is functional.
Series [4] can be described thus: Half life in mouse brain at 10 ul. It counts as ADME, organism-based.
A further series concerns the target Mu-type opioid receptor (Rattus norvegicus, UniProt P33535). The series can be described thus: Displacement of [3H]DAMGO from mu opioid receptor in Wistar rat brain.
The test system of series [5] is Mus musculus. The series can be described thus: Antinociceptive activity in mouse at 4 ul, icv by hot plate test assessed as area under %MPE - time curve after 15 mins. The class given is functional.
The target in series [6] is Mu-type opioid receptor (Rattus norvegicus) (UniProt P33535). Briefly: Decrease of maximum binding of [3H]DAMGO to mu opioid receptor in Wistar rat brain at 10000 nm. Further details: scale not given: the % may be the effect or the level left.
Chain of Mu-type opioid receptor (Rattus norvegicus) (P33535 whole entry): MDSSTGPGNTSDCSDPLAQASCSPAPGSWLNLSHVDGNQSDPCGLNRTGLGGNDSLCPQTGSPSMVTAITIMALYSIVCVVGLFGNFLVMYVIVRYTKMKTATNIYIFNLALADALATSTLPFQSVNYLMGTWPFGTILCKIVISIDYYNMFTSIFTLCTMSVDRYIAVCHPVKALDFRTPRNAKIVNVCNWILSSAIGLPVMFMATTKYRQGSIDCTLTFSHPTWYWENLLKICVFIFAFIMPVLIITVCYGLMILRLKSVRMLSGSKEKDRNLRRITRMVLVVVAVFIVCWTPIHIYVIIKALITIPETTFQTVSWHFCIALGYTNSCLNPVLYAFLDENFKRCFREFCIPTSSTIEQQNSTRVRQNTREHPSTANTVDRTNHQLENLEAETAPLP

Chain of Mu-type opioid receptor (P33535 whole entry): as above
Chain of Delta-type opioid receptor (P33533 whole entry): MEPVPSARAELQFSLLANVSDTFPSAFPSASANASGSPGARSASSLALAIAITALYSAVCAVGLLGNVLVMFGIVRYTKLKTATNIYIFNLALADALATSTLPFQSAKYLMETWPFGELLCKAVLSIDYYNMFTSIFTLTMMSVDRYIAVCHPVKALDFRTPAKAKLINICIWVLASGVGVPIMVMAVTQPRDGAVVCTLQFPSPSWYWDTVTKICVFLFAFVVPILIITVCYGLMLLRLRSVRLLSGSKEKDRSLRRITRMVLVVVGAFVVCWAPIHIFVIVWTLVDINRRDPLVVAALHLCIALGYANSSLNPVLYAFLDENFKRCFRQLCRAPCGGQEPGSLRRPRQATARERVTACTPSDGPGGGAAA

With `NC(=O)[C@H](Cc1ccccc1)NC(=O)[C@H](CCc1ccccc1)NC(=O)[C@@H]1CCCN1C(=O)[C@@H](N)Cc1ccc(O)cc1`, the results for the Ki (in series [1]; at Mu-type opioid receptor) were above 10000 nM and 28.4 nM, respectively. The Activity is reported as 50% in the series with Mus musculus [2], 38.2% with Mus musculus [3] and 67.5% with Mus musculus [5]. The same compound showed a half-life in series [4] of 32.5 min.

As for `NC(=O)[C@H](CCc1ccccc1)NC(=O)[C@H](Cc1ccccc1)NC(=O)[C@@H]1CCCN1C(=O)[C@@H](N)Cc1ccc(O)cc1`, the Ki in series [1] is above 10000 nM; on Mu-type opioid receptor, 74.5 nM.

`NC(=O)[C@H](Cc1ccccc1)NC(=O)[C@@H](NC(=O)[C@@H]1CCCN1C(=O)[C@@H](N)Cc1ccc(O)cc1)c1ccccc1`: the values for the Ki (in series [1]; at Mu-type opioid receptor) were above 10000 nM and 268 nM, respectively.

Consider `NC(=O)[C@@H]1CCCN1C(=O)[C@H](Cc1ccccc1)NC(=O)[C@@H]1CCCN1C(=O)[C@@H](N)Cc1ccc(O)cc1` [MORPHICEPTIN] (H-YPFP-NH2), for which the Ki in series [1] was above 10000 nM; at Mu-type opioid receptor, 135 nM.

Turning to `NC(=O)[C@H](Cc1ccccc1)NC(=O)[C@H](NC(=O)[C@@H]1CCCN1C(=O)[C@@H](N)Cc1ccc(O)cc1)c1ccccc1`, the Ki in series [1] turned out to be 2100 nM; at Mu-type opioid receptor, 1350 nM.

`NC(=O)[C@@H]1CCCN1C(=O)[C@@H](NC(=O)[C@@H]1CCCN1C(=O)[C@@H](N)Cc1ccc(O)cc1)c1ccccc1` yielded an inhibitory constant (Ki) in series [1] above 10000 nM.

Turning to `NC(=O)[C@H](NC(=O)[C@H](Cc1ccccc1)NC(=O)[C@@H]1CCCN1C(=O)[C@@H](N)Cc1ccc(O)cc1)c1ccccc1`, the Ki in series [1] is above 10000 nM; on Mu-type opioid receptor, 216 nM.

Take `NC(=O)[C@@H](NC(=O)[C@H](Cc1ccccc1)NC(=O)[C@@H]1CCCN1C(=O)[C@@H](N)Cc1ccc(O)cc1)c1ccccc1`: the Ki in series [1] was above 10000 nM; on Mu-type opioid receptor, 26.9 nM. Besides, the Activity in the series on Mus musculus [2] worked out at 42.2%; in the series on Mus musculus [3], 35.5%; with Mus musculus [5], 54.2%. The compound further returned a half-life in series [4] of 24.1 min.

Turning to `NC(=O)[C@H](Cc1ccccc1)NC(=O)[C@H](Cc1ccccc1)NC(=O)[C@@H]1CCCN1C(=O)[C@@H](N)Cc1ccc(O)cc1` [ENDOMORPHIN 2], the Activity was determined as 34.8% in the series with Mus musculus [2] and 40.1% with Mus musculus [5]. In series [4], this compound came in with a half-life of 19.7 min.

In the case of `NC(=O)[C@@H]1CCCN1C(=O)[C@H](CCc1ccccc1)NC(=O)[C@@H]1CCCN1C(=O)[C@@H](N)Cc1ccc(O)cc1` (H-YP[hPhe]P-NH2), the Ki is above 10000 nM in series [1] and 586 nM on Mu-type opioid receptor.

`NC(=O)[C@@H]1CCCN1C(=O)[C@H](NC(=O)[C@@H]1CCCN1C(=O)[C@@H](N)Cc1ccc(O)cc1)c1ccccc1` registered a Ki in series [1] above 10000 nM. The Activity in series [6] was found to be 24.5%.
